This passage reports Ratio, Activity and inhibition results from ChEMBL document CHEMBL1287665, “Design, synthesis and inhibitory effect of pentapeptidyl chloromethyl ketones on proteinase K” (Bioorg Med Chem, 2010).

Conditions in all cases: Parengyodontium album
Test [1] deals with Proteinase K (Engyodontium album) (UniProt P06873). Briefly: Ratio of compound to MeO-Suc-AAAPV-CH2Cl for inhibition of Engyodontium album proteinase K proteolytic activity assessed as concentration required to obtain cycle threshold 26 using TaqMan gene expression Cells-to-CT kit after 60 mins by RT-PCR analysis.
Test [2] shares this target. As to the kind of experiment: Inhibition of Engyodontium album proteinase K proteolytic activity assessed as concentration required to obtain cycle threshold 26 using TaqMan gene expression Cells-to-CT kit after 60 mins by qRT-PCR analysis.
The target is the same in test [3]. Briefly: Inhibition of Engyodontium album proteinase K proteolytic activity in human HeLa cell lysate using beta-actin primer/probes of TaqMan gene expression Cells-to-CT kit at 0.10 mM after 60 mins by qRT-PCR analysis. It is filed as cell-free.
The target is the same in test [4]. Briefly: Inhibition of Engyodontium album proteinase K proteolytic activity assessed as digestion of bovine serum albumin at 0.25 mM after 10 mins using coomassie blue staining by protein gel analysis.
Test [5] has the same target. As to the kind of experiment: Inhibition of Engyodontium album proteinase K proteolytic activity assessed as digestion of bovine serum albumin at 0.75 mM after 10 mins using coomassie blue staining by protein gel analysis.
The target is the same in test [6]. Briefly: Inhibition of Engyodontium album proteinase K proteolytic activity in human HeLa cell lysate using beta-actin primer/probes of TaqMan gene expression Cells-to-CT kit at 0.5 mM after 60 mins by qRT-PCR analysis. Type of test: cell-free.

Calls of active or inactive are those of the source.

Sequence of Proteinase K (Engyodontium album) (P06873 whole entry): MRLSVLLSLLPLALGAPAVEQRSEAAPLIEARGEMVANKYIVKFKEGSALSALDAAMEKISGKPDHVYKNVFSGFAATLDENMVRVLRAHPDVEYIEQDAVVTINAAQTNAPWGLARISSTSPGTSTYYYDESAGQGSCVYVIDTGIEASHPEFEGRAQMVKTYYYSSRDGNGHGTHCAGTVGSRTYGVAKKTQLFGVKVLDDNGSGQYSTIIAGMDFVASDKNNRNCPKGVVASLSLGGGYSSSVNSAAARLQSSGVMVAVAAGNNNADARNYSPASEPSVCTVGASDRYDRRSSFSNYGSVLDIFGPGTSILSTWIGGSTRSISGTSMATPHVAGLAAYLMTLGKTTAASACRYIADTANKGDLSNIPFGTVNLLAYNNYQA

In the case of `COC(=O)CCC(=O)N[C@@H](C)C(=O)N[C@H](C)C(=O)N[C@@H](C)C(=O)N1CCC[C@H]1C(=O)N[C@H](Cc1ccccc1)C(=O)CCl`, in test [1], the Ratio was 7.5. The Activity in test [2] came out at 0.1 mM. Moreover, the inhibition result in test [3] and in test [4] was “Active” throughout.

On to `COC(=O)CCC(=O)N[C@@H](C)C(=O)N[C@H](C)C(=O)N[C@@H](C)C(=O)N1CCC[C@H]1C(=O)N[C@@H](C(=O)CCl)C(C)C`, for which the inhibition entry in test [5] was “inactive”. For the same compound, in test [6], the inhibition entry is “Active”.
